Laboratory results as given in patent US9745311B2, “Substituted pyrrolo[2,3-b]pyrazines as FGFR inhibitors” (Incyte Corporation, priority 2012, dated 2017).

Tests used:
[1] = target: FGFR1 (Homo sapiens (Human), UniProt P11362); assay: FGFR Enzymatic Assay (FGFR1); format: biochemical; details: enzyme 0.02 nM, ATP 210 μM
[2] = target: FGFR3 enzyme (Millipore) (Homo sapiens (Human), UniProt P22607); assay: biochemical
Description: (§1) The inhibitor potency of compounds was measured in an enzyme assay that measures peptide phosphorylation using FRET measurements to detect product formation. Inhibitors were serially diluted in DMSO and a volume of 0.5 μL was transferred to the wells of a 384-well plate. For FGFR3, a 10 μL volume of FGFR3 enzyme (Millipore) diluted in assay buffer (50 mM HEPES, 10 mM MgCl2, 1 mM EGTA, 0.01% Tween-20, 5 mM DTT, pH 7.5) was added to the plate and pre-incubated for 5-10 minutes. Appropriate controls (enzyme blank and enzyme with no inhibitor) were included on the plate. […] The plate was incubated at 25° C. for 1 hr. […] The plate was allowed to equilibrate for ˜1 hr before scanning the wells on a PheraStar plate reader.
(§2) GraphPad prism3 was used to analyze the data. The IC50 values were derived by fitting the data to the equation for a sigmoidal dose-response with a variable slope. Y=Bottom+(Top−Bottom)/(1+10^((Log IC50−X)*HillSlope)) where X is the logarithm of concentration and Y is the response.

[3] = target: FGFR2 (Homo sapiens (Human), UniProt P21802); assay: FGFR Enzymatic Assay (FGFR2); format: biochemical; details: enzyme 0.01 nM, ATP 100 μM; read-out: FGFR2 IC50;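 also: FRET read-out of peptide phosphorylation by the purified kinase, with enzyme-free blank and uninhibited enzyme as controls, potency from a variable-slope sigmoidal dose-response fit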
Sequence of FGFR2 (P21802 22-821): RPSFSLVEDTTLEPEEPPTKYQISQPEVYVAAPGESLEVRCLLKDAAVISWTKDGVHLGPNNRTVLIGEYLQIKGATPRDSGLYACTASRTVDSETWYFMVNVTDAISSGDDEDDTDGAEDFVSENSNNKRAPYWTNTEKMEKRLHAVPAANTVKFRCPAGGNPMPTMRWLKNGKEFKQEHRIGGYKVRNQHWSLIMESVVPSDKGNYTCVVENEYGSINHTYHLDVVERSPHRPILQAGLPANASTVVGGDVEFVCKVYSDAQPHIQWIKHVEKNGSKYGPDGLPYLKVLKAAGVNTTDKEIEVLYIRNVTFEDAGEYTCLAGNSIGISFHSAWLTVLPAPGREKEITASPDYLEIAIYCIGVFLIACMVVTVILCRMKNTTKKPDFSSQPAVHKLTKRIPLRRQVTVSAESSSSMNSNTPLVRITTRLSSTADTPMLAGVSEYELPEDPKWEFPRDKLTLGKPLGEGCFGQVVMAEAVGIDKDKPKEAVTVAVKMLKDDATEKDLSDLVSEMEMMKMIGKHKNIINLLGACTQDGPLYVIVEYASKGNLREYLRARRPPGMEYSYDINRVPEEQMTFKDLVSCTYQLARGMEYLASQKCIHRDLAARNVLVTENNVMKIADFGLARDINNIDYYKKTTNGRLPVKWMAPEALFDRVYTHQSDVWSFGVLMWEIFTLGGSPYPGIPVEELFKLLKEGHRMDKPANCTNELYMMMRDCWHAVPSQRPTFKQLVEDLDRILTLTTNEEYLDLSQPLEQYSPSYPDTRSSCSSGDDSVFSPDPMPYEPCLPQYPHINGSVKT
Description: as §1, §2

Sequence of FGFR3 enzyme (Millipore) (P22607 23-806): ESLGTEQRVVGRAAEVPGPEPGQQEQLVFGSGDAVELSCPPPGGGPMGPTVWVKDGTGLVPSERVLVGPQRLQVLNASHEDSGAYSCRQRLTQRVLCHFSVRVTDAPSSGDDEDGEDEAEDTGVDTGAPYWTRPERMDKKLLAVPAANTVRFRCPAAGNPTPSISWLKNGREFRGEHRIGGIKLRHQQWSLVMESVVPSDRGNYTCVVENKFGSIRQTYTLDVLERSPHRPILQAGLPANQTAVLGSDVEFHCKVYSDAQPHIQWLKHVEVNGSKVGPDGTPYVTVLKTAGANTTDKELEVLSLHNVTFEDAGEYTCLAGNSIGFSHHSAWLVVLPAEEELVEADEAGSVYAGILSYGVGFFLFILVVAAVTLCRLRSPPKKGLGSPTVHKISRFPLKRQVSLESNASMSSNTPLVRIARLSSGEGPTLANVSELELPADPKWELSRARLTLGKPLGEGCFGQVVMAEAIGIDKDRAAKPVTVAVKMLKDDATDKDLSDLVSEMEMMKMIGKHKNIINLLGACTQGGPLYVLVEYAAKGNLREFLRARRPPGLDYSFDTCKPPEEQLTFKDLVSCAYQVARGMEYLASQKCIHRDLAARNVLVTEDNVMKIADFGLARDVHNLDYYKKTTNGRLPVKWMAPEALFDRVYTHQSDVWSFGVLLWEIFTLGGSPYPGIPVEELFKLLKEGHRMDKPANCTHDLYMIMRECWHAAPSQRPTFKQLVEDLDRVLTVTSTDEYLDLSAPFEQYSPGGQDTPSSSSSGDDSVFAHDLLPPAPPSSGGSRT
Sequence of FGFR1 (P11362 22-822): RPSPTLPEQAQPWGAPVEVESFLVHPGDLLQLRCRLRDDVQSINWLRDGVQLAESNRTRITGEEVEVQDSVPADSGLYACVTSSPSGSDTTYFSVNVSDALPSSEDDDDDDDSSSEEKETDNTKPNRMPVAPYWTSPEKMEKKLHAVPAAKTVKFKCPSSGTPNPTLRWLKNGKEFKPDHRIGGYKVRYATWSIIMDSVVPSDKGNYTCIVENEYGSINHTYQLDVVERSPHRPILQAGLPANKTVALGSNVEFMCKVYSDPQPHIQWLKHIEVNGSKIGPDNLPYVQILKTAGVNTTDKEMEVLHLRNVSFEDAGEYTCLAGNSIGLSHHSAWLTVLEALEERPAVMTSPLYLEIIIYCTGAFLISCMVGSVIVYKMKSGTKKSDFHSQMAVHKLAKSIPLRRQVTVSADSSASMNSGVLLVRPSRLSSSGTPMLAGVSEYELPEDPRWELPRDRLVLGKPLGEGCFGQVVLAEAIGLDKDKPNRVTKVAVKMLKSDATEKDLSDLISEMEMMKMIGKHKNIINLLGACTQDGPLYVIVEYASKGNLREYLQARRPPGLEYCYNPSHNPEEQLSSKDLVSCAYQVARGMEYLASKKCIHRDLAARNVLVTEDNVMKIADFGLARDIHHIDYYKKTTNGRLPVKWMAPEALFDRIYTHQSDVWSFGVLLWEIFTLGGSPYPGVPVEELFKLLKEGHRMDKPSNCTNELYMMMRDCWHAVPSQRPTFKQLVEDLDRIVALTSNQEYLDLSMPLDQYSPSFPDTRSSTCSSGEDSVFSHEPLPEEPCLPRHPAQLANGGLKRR

Structure (SMILES) | IC50 [1] | IC50 [2] | IC50 [3]
CNC(=O)c1c(-c2ccc(N3CCN(C)CC3)cc2)[nH]c2ncc(CCc3cc(OC)cc(OC)c3)nc12 [Example 50, 2-[2-(3,5-dimethoxyphenyl)ethyl]-N-methyl-6-[4-(4-methylpiperazin-1-yl)phenyl]-5H-pyrrolo[2,3-b]pyrazine-7-carboxamide] | < 100 nM | 500 to 2700 nM | < 100 nM
COc1cc(CCc2cnc3[nH]c(-c4ccc(F)c(C(=O)N(C)C)c4)cc3n2)cc(OC)c1 [Example 54, 5-(2-(3,5-Dimethoxyphenethyl)-5H-pyrrolo[2,3-b]pyrazin-6-yl)-2-fluoro-N,N-dimethylbenzamide] | < 100 nM | 100 to 500 nM | < 100 nM
COc1cc(CCc2cnc3[nH]c(-c4ccnc(N5CCN(C)CC5)c4)cc3n2)cc(OC)c1 [Example 55, 2-(3,5-Dimethoxyphenethyl)-6-(2-(4-methylpiperazin-1-yl)pyridin-4-yl)-5H-pyrrolo[2,3-b]pyrazine] | < 100 nM | 100 to 500 nM | < 100 nM
COc1cc(CCc2cnc3[nH]c(-c4cnc(N)nc4)cc3n2)cc(OC)c1 [Example 58, 5-(2-(3,5-Dimethoxyphenethyl)-5H-pyrrolo[2,3-b]pyrazin-6-yl)pyrimidin-2-amine] | < 100 nM | 100 to 500 nM | < 100 nM
COc1cc(CCc2cnc3[nH]c(-c4ccc(C(=O)N(C)C)nc4)cc3n2)cc(OC)c1 [Example 59, 5-(2-(3,5-Dimethoxyphenethyl)-5H-pyrrolo[2,3-b]pyrazin-6-yl)-N,N-dimethylpicolinamide] | < 100 nM | 100 to 500 nM | < 100 nM
COc1cc(CCc2cnc3[nH]c(-c4ccnc(C#N)c4)cc3n2)cc(OC)c1 [Example 60, 4-(2-(3,5-Dimethoxyphenethyl)-5H-pyrrolo[2,3-b]pyrazin-6-yl)picolinonitrile] | < 100 nM | 100 to 500 nM | < 100 nM
COc1cc(CCc2cnc3[nH]c(-c4ccc(OC)nc4)cc3n2)cc(OC)c1 [Example 61, 2-(3,5-Dimethoxyphenethyl)-6-(6-methoxypyridin-3-yl)-5H-pyrrolo[2,3-b]pyrazine] | < 100 nM | 100 to 500 nM | < 100 nM
COc1cc(CCc2cnc3[nH]c(-c4ccc5cnn(C)c5c4)cc3n2)cc(OC)c1 [Example 63, 2-(3,5-Dimethoxyphenethyl)-6-(1-methyl-1H-indazol-6-yl)-5H-pyrrolo[2,3-b]pyrazine] | < 100 nM | 100 to 500 nM | < 100 nM
COc1cc(CCc2cnc3[nH]c(-c4ccc(NC(C)=O)nc4)cc3n2)cc(OC)c1 [Example 67, N-(5-(2-(3,5-Dimethoxyphenethyl)-5H-pyrrolo[2,3-b]pyrazin-6-yl)pyridin-2-yl)acetamide] | < 100 nM | 100 to 500 nM | < 100 nM
COc1cc(CCc2cnc3[nH]c(-c4ccc(N5CCCC5=O)nc4)cc3n2)cc(OC)c1 [Example 68, 1-(5-(2-(3,5-Dimethoxyphenethyl)-5H-pyrrolo[2,3-b]pyrazin-6-yl)pyridin-2-yl)pyrrolidin-2-one] | < 100 nM | 100 to 500 nM | < 100 nM
COc1cc(CCc2cnc3[nH]c(-c4cncc(N5CCOCC5)c4)cc3n2)cc(OC)c1 [Example 69, 4-(5-(2-(3,5-Dimethoxyphenethyl)-5H-pyrrolo[2,3-b]pyrazin-6-yl)pyridin-3-yl)morpholine] | < 100 nM | 100 to 500 nM | < 100 nM
COc1cc(CCc2cnc3[nH]c(-c4ccc5[nH]ncc5c4)cc3n2)cc(OC)c1 [Example 70, 2-(3,5-Dimethoxyphenethyl)-6-(1H-indazol-5-yl)-5H-pyrrolo[2,3-b]pyrazine] | < 100 nM | 100 to 500 nM | < 100 nM
COc1cc(CCc2cnc3[nH]c(-c4ccnc(C(=O)N(C)C)c4)cc3n2)cc(OC)c1 [Example 74, 4-(2-(3,5-Dimethoxyphenethyl)-5H-pyrrolo[2,3-b]pyrazin-6-yl)-N,N-dimethylpicolinamide] | < 100 nM | 100 to 500 nM | < 100 nM
COc1cc(CCc2cnc3[nH]c(-c4ccnc(C(=O)N5CC(O)C5)c4)cc3n2)cc(OC)c1 [Example 75, (4-(2-(3,5-Dimethoxyphenethyl)-5H-pyrrolo[2,3-b]pyrazin-6-yl)pyridin-2-yl)(3-hydroxyazetidin-1-yl)methanone] | < 100 nM | 100 to 500 nM | < 100 nM
